The source of these data is US12594282B2, “Use of small molecule compounds in the treatment of diseases mediated by lung epithelial cell injury and/or vascular endothelial cell injury” (Guangzhou Cellprotek Pharmaceutical Co., Ltd., priority 2020, dated 2026).

For assay [1], the system named is LPS-induced acute lung injury. Description: LPS-induced acute lung injury in rats (HE pathology, Smith score). Format: in vivo, rat. The settings on record: for lung injury pathological score vs LPS model group: tail vein every 6 h x4, 24 h after LPS 6.4 mg/kg. As to the method:
Animal grouping: 60 qualified rats with uniform body weight were selected and included in the experiment, and were randomly divided into 6 groups according to body weight, 10 rats/group. The animal grouping and the drug treatment dose of each group were as follows:
Drug administration: Test drugs were administered by tail vein at 0.3 mL/100 g body weight, hydrocortisone (25 mg/kg) was administered intraperitoneally at 0.5 mL/100 g body weight; the first administration for all the test agents were performed 0.5 h before LPS administration in the model. The test drug solvent and YC-6 were intravenously injected once every 6 h for a total of 4 injections, and the hydrocortisone (HC) group was intraperitoneally injected once every 12 h for a total of 2 injections.
After the rats were weighed and anesthetized by isoflurane, they were fixed in a supine position. The hair in the skin of the neck was removed, the skin of the neck was sterilized with 75% ethanol, and incised in the middle, after which the subcutaneous tissue was bluntly separated, and the upper trachea was exposed. 8 mg/mL LPS solution was injected into the trachea with a syringe, 0.2 mL/rat, and each rat was calculated as having body weight of […], and the dose was 6.4 mg/kg. Immediately after injection, the rats were erected, shaken, and rotated to distribute the LPS solution evenly in the lungs. The skin was sutured and disinfected with iodophor.
24 h after LPS injection, the animals were anesthetized by intraperitoneal injection of 20% […] solution at a volume of 6 mL/kg body weight. After the abdominal aorta was bled till the animal was dead, the thoracic cavity was exposed, and the lung tissue was collected. The left lung was fixed in 10% paraformaldehyde solution for 48 hours, after which the coronal plane of the left lung was cross-sectioned into two equal-width upper and lower parts, and then the lower half of the left lung was cross-sectioned into two equal-width parts according to the coronal plane. The sagittal plane of the upper half of the left lung and the coronal plane of the two lower half of the left lung were embedded in a paraffin block, sectioned and stained with hematoxylin-eosin (HE).
Tissue dehydration and paraffin embedding: The tissue was taken out of the fixative and successively immersed in 50% ethanol (30 min)-70% ethanol (overnight)-80% ethanol (30 min)-90% ethanol (30 min)-95% ethanol (30 min)-absolute ethanol (2 times, 30 min each time)-xylene (2 times, 5˜10 min each time, until the sample was completely transparent)-62° C. paraffin (3 times, 1 hour each time), followed by tissue embedding. Tissue paraffin sectioning: The thickness was 3 μm, the sections were dried on a microtome, and then placed in a 37° C. oven to dry overnight, and then used for HE staining. […]

Assay [2] has as its system PFKFB3. Description: Glutamate-induced PFKFB3 expression in primary cerebellar granule neurons (Western blot). The assay is classed as cell-based, mice. The settings on record: 10 μM, pre-incubation 20 mins; 200 μM glutamate for 5 mins and 15 mins. How it is done:
(§1) The cells were obtained from SD P7-8 neonatal mice. The cerebellum was taken, and the meninges and blood vessels were removed using microtweezers; the isolated cerebellar tissue was transferred to another dish containing dissection solution. The tissue was cut into pieces as small as possible using a tissue scissor. Digestion: The tissue in pieces was added into 7 mL of 0.25% trypsin digestive solution with a pipet, and was digested at 37° C. for 15 mins; the bench surface was cleaned and the instruments were washed. The container was turned upside down several times every five minutes to bring the tissue into better contact with the digestive solution. End of digestion: After the digestion, it can be seen that the tissue was sticked together and suspended in the liquid due to cell disruption and release of DNA. The digestion was terminated by adding 3 mL of […] 10% FBS DMEM medium. The container was turned upside down several times, and it can be observed that the remaining tissue dispersed due to DNA hydrolysis. Centrifugation was performed at 1000 rpm for 5 mins. As much supernatant as possible was carefully removed. Collection of single cell suspension: 7 mL of DNase-containing 10% FBS DMEM medium was taken with a pipet, by which the tissue pellet was gently pipeted. […] The cells were counted with a hand-held cell counter, and the seeding density was 4.0-5.0×10^5 cells/mL. […]
On the technique in general: A western blot detects proteins with antibodies after separation by electrophoresis.

The subject of assay [3] is primary cerebellar granule neuron. The assay can be described thus: Intracellular lactate assay in glutamate-stimulated primary cerebellar granule neurons. The note with it: 10 μM, pre-incubation 20 mins; 200 μM glutamate for 15 mins. The assay is classed as cell-based, mice. How it is done:
as §1, with “medium.” for “medium. The container was turned upside down several times, and it can be observed that the remaining tissue dispersed due to DNA hydrolysis. Centrifugation was performed at 1000 rpm for 5 mins. As much supernatant as possible was carefully removed. Collection of single cell suspension: 7 mL of DNase-containing 10% FBS DMEM medium was taken with a pipet, by which the tissue pellet was gently pipeted.”
Pretreatment: The number of cells used for the determination of intracellular lactate content was 1-2*10^6. […] Centrifugation was performed at 16,000 g for 5 mins at 4° C., 160 μL of supernatant was collected into a new EP tube, and the remaining supernatant was subjected to BCA protein quantification. […]

The mark [4] stands for this setting: 12, 40, 120 mg/kg/d, HE staining.

As to `C[C@@]12CCCC1C1C[C@@H](O)[C@]3(O)C[C@@H](O)CC[C@]3(C)C1CC2` (stereo partly drawn) [YC-6, 5α-androst-3β,5,6β-triol], the “lung injury pathological score vs LPS model group” value in assay [1] (12 mg/kg/d), in assay [1] (40 mg/kg/d) and in assay [1] (120 mg/kg/d) was “significantly lower pathological scores” each time. The “alveolar damage vs LPS model group” value in assay [1] (setting [4]) is given as “reduced alveolar damage”. Moreover, the “inflammatory cell infiltration in lung tissue vs LPS model group” value in assay [1] (setting [4]) is given as “reduced inflammatory cell infiltration”. Also, the “protective effect (pathological score) compared with 50 mg/kg/d hydrocortisone” value in assay [1] (low-dose group (12 mg/kg/d), P<0.05) is “significantly better protective effect”. Moreover, the “glutamate-induced up-regulation of intracellular PFKFB3 expression” value in assay [2] was “significantly inhibited this rapid increase”. Further, the “glutamate-induced intracellular accumulation of lactate” value in assay [3] is given as “significantly inhibited the accumulation of lactate”.
